Legend:
[1] = Method A: diphenylpicrylhydrazyl free radical, optical density at 513 nm; conditions: DPPH radical
Source text: Method A In a first method, use was made of diphenylpicrylhydrazyl (DPPH^o), a relatively stable free radical which produces a purple-colored solution. The parameter determined was the optical density (DO) at 513 nm. The results are summarized in Table 1; in each case the EC50 values are given in % (w/v).

Xanthin oxidase = Xanthin oxidase (Homo sapiens, UniProt P47989); assay: Method D: Xanthin oxidase, superoxide anion by NBT reduction, optical density at 490 nm; type: biochemical
Sequence of Xanthin oxidase (P47989 whole entry): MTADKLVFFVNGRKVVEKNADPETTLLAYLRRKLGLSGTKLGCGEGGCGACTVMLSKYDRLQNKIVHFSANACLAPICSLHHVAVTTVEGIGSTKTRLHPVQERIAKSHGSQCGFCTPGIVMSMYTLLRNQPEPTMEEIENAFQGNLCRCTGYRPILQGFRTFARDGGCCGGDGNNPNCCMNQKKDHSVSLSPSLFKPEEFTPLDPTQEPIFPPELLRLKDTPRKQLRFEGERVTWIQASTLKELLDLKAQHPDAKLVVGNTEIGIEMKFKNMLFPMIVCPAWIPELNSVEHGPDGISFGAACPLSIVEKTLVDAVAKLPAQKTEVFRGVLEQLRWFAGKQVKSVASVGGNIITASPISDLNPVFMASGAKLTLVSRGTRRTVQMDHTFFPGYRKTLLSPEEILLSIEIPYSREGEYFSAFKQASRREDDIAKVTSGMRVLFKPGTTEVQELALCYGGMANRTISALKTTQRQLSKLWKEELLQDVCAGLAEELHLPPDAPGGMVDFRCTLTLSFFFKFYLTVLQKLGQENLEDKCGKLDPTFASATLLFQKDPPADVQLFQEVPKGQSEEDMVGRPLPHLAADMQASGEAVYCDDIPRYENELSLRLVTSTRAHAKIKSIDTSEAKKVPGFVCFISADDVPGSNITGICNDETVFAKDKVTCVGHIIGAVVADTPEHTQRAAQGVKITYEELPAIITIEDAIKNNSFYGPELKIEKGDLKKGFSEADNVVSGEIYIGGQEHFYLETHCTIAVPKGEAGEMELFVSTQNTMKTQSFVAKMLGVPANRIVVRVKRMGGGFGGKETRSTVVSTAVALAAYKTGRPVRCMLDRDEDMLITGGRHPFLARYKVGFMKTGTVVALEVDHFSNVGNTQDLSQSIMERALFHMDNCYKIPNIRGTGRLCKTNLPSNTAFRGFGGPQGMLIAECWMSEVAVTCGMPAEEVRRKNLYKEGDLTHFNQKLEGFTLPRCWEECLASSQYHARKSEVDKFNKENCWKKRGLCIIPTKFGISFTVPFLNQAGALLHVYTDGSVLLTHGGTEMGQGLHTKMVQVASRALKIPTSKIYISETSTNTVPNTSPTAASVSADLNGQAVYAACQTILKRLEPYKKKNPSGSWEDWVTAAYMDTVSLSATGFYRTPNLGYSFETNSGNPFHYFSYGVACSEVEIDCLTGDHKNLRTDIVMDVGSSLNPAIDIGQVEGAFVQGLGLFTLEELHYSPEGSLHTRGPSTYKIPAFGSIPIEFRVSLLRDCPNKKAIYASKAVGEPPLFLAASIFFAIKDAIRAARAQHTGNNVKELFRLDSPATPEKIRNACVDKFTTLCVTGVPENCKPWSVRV
Source text: Method D Xanthin oxidase is an enzyme which is released as a result of oxidative stress and catabolizes the degradation of the purine bases adenine and guanine into […] and superoxide anions. The latter dismutate spontaneously or in the presence of superoxide dismutase into hydrogen peroxide and oxygen.
The amount of superoxide anion can be determined by NBT reduction via the optical density at 490 nm. It was investigated whether fewer superoxide anions are generated or more anions are destroyed in the presence of the test substances.
(§1) The results are summarized in Table 1; in each case the EC50 values are given in % (w/v).

[2] = Method B: hydroxyl radicals from hydrogen peroxide with iron(II) ions and EDTA, deoxyribose oxidation
Source text: Method B In the presence of iron(II)ions and EDTA, hydroxyl radicals were liberated from hydrogen peroxide and used for the oxidation of deoxyribose. The oxidation product forms a pink-colored compound with thiobarbituric acid. Its concentration corresponds to the optical density at 532 nm. It was investigated whether less deoxyribose is oxidized, i.e. fewer free radicals are liberated, in the presence of the test products. The results are summarized in Table 1; in each case the EC50 values are given in % (w/v).

[3] = Method C: deoxyribose oxidation in the absence of EDTA (inactive iron complexes)
Source text: as §1

Row | Compound | EC50, test method A [1] | EC50 (Xanthin oxidase; read-out: EC50, test method D (converted)) | EC50, test method B [2] | EC50, test method C [3] | EC50, test method D (Xanthin oxidase)
1 | O=C1O[C@H]([C@@H](O)CO)C(O)=C1O [Ascorbic acid] | 0.0013 % (w/v) | 33.6 mM | 0.2607% (w/v) | 0.9% (w/v) | 
2 | Tocopherol | 0.0067 % (w/v) |  |  |  | no

— patent US20040234480A1, “Use of oligomeric proanthrocyanidins” (priority 2001, published 2004)
